In the CheMixHub viscosity set:

Assay: xn = mol fraction of the nth substance listed

CCCCN(CCCC)CCCC + CCC(C)O
303.15 K, 101 kPa
Details | viscosity [mPa·s]
x1 = 0.01127 | 2.456
x1 = 0.0218 | 2.439
x1 = 0.03265 | 2.423
x1 = 0.04214 | 2.409
x1 = 0.04957 | 2.399
x1 = 0.05793 | 2.387
x1 = 0.06851 | 2.372
x1 = 0.07785 | 2.359
x1 = 0.08821 | 2.345

CCCCN(CCCC)CCCC + CCCCO
viscosity [mPa·s]
Details | 303.15 K | 313.15 K
101 kPa, x1 = 0.007767 | 2.245 | –
101 kPa, x1 = 0.01457 | 2.236 | –
101 kPa, x1 = 0.02285 | 2.226 | –
101 kPa, x1 = 0.03362 | 2.211 | –
101 kPa, x1 = 0.04436 | 2.197 | –
101 kPa, x1 = 0.04946 | 2.191 | –
101 kPa, x1 = 0.05954 | 2.178 | –
101 kPa, x1 = 0.07271 | 2.16 | –
101 kPa, x1 = 0.08924 | 2.138 | –
101.3 kPa, x1 = 0.0942 | 2.159 | 1.71
101.3 kPa, x1 = 0.1897 | 2.028 | 1.608
101.3 kPa, x1 = 0.3149 | 1.877 | 1.481
101.3 kPa, x1 = 0.4192 | 1.766 | 1.393
101.3 kPa, x1 = 0.5187 | 1.65 | 1.311
101.3 kPa, x1 = 0.618 | 1.542 | 1.231
101.3 kPa, x1 = 0.7149 | 1.448 | 1.154
101.3 kPa, x1 = 0.8007 | 1.365 | 1.102
101.3 kPa, x1 = 0.9031 | 1.256 | 1.047

CCCCN(CCCC)CCCC + C1CCCCC1
viscosity [mPa·s], 101 kPa
Details | 303.15 K | 313.15 K
x1 = 0.0103 | 0.8168 | 0.7154
x1 = 0.0216 | 0.816 | 0.7139
x1 = 0.03178 | 0.8153 | 0.7132
x1 = 0.04023 | 0.8141 | 0.7121
x1 = 0.05159 | 0.8132 | 0.7111
x1 = 0.05978 | 0.8121 | 0.7102
x1 = 0.0709 | 0.8113 | 0.709
x1 = 0.0807 | 0.81 | 0.7078
x1 = 0.08607 | 0.8086 | 0.7065
x2 = 0.1133 | 1.125 | –
x2 = 0.1972 | 1.125 | –
x2 = 0.402 | 1.021 | –
x2 = 0.499 | 0.987 | –
x2 = 0.5952 | 0.951 | –
x2 = 0.7042 | 0.911 | –
x2 = 0.8018 | 0.875 | –
x2 = 0.9005 | 0.845 | –

CCCCN(CCCC)CCCC + CCCCCO
viscosity [mPa·s], 101.3 kPa
Details | x1 = 0.0945 | x1 = 0.1881 | x1 = 0.2845 | x1 = 0.3843 | x1 = 0.4829 | x1 = 0.6148 | x1 = 0.7041 | x1 = 0.798 | x1 = 0.8912
303.15 K | 2.622 | 2.405 | 2.18 | 1.961 | 1.786 | 1.581 | 1.458 | 1.365 | 1.262
313.15 K | 2.122 | 1.91 | 1.714 | 1.551 | 1.415 | 1.266 | 1.188 | 1.118 | 1.054

CCCC[P+](CC)(CC)CC.N#Cc1ccc[n-]1 + OCC(O)CO
100 kPa
Details | viscosity [mPa·s]
293.15 K, x1 = 0.259 | 933
293.15 K, x1 = 0.34 | 737
298.15 K, x1 = 0.004 | 876
298.15 K, x1 = 0.018 | 953
298.15 K, x1 = 0.129 | 932
298.15 K, x1 = 0.187 | 768
303.15 K, x1 = 0.058 | 695
303.15 K, x1 = 0.08 | 692
